Source: ChEMBL document CHEMBL1137598, “Synthesis and structure-activity relationship of N-acyl-Gly-, N-acyl-Sar- and N-blocked-boroPro inhibitors of FAP, DPP4, and POP” (Bioorg Med Chem Lett, 2007)
pKi: −log10 of the molar value.

Legend:
[1] = target: Dipeptidyl peptidase 4 (Homo sapiens) (UniProt P27487); assay: Inhibition of DPP-4 at 500uM
[2] = target: T1, Prolyl endopeptidase (Homo sapiens, UniProt P48147); assay: Inhibitory constant against POP
T1 sequence (P48147 whole entry): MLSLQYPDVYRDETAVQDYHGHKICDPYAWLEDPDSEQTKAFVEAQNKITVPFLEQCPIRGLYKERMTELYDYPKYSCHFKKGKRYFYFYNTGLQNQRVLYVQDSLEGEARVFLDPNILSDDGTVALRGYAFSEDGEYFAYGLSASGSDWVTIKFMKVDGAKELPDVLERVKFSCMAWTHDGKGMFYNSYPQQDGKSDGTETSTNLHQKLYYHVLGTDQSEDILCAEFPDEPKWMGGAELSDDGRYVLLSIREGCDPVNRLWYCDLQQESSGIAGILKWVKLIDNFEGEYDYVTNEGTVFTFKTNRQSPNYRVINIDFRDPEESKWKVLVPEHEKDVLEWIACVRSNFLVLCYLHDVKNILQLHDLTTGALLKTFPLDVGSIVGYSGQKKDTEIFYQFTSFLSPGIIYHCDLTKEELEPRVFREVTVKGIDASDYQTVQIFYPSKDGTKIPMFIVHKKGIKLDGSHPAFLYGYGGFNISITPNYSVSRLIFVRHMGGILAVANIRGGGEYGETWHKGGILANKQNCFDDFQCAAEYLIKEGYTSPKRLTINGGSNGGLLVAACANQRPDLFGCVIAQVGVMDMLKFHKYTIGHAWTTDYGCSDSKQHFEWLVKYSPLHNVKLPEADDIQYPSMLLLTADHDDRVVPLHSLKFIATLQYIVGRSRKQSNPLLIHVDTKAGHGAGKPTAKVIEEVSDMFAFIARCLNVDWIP

Sequence of Dipeptidyl peptidase 4 (Homo sapiens) (P27487 whole entry, looked up): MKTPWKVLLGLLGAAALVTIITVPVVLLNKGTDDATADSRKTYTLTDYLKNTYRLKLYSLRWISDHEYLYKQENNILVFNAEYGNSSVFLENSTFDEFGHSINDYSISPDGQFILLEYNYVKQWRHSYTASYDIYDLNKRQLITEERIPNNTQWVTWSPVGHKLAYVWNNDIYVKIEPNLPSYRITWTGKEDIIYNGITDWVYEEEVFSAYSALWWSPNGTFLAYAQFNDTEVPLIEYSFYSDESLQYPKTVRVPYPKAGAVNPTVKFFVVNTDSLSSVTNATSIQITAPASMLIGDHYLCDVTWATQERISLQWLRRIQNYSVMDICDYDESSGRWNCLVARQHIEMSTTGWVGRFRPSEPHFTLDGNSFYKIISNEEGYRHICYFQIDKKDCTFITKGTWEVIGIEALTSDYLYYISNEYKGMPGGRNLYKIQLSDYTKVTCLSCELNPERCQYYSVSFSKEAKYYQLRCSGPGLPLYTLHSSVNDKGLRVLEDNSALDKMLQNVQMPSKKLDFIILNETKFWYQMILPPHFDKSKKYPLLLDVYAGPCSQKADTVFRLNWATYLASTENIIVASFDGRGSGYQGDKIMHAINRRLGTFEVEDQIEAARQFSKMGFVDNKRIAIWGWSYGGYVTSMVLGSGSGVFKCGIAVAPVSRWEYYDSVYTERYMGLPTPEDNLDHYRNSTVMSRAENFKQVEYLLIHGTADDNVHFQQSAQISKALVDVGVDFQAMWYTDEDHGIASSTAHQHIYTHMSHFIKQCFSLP

Structure (SMILES)	inhibition [1] [%]	pKi [2]
CC(=O)N[C@H](C)C(=O)N1CCC[C@H]1B(O)O	17	
CS(=O)(=O)NCC(=O)N1CCC[C@H]1B(O)O		5.87
CC(C)C(=O)N(C)CC(=O)N1CCC[C@H]1B(O)O		7.89
